From PubChem BioAssay (NCI)
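Where inhibition never reached the appropriate level, the endpoint shown equals the highest concentration tested. Otherwise, values were interpolated linearly from a five-concentration, 48-hour dose response in 96-well plates. GI50: concentration for 50% inhibition of growth. The concentration for full growth arrest is given as TGI.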

Experiments:
Test in all cases: DTP human tumour cell line panel, 48 h
NCI-H522 lung = system: NCI-H522 lung
HL-60(TB) leukemia = system: HL-60(TB) leukemia
IGROV1 ovarian = system: IGROV1 ovarian
HOP-92 NSCLC = system: HOP-92 NSCLC
A549 NSCLC = system: A549 NSCLC
UO-31 renal = system: UO-31 renal
M14 melanoma = system: M14 melanoma
LOX IMVI melanoma = system: LOX IMVI melanoma
NCI-H23 lung = system: NCI-H23 lung
HCC-2998 colon = system: HCC-2998 colon
U251 CNS = system: U251 CNS
OVCAR-3 ovarian = system: OVCAR-3 ovarian
OVCAR-8 ovarian = system: OVCAR-8 ovarian
A498 renal = system: A498 renal
ACHN renal = system: ACHN renal
OVCAR-5 ovarian = system: OVCAR-5 ovarian
HOP-62 NSCLC = system: HOP-62 NSCLC
MDA-MB-435 = system: MDA-MB-435
UACC-257 melanoma = system: UACC-257 melanoma
HCT-15 colon = system: HCT-15 colon
SW-620 colon = system: SW-620 colon
SK-MEL-2 melanoma = system: SK-MEL-2 melanoma
SK-MEL-5 melanoma = system: SK-MEL-5 melanoma
KM12 colon = system: KM12 colon
NCI-H226 lung = system: NCI-H226 lung
MCF7 breast = system: MCF7 breast
NCI/ADR-RES ovarian = system: NCI/ADR-RES ovarian
UACC-62 melanoma = system: UACC-62 melanoma
DU-145 prostate = system: DU-145 prostate
RPMI-8226 leukemia = system: RPMI-8226 leukemia
HS 578T breast = system: HS 578T breast
EKVX NSCLC = system: EKVX NSCLC
SF-295 CNS = system: SF-295 CNS
PC-3 prostate = system: PC-3 prostate
SN12C renal = system: SN12C renal
HCT-116 colon = system: HCT-116 colon
K-562 leukemia = system: K-562 leukemia
BT-549 breast = system: BT-549 breast
MDA-MB-231 breast = system: MDA-MB-231 breast
SF-539 CNS = system: SF-539 CNS
OVCAR-4 ovarian = system: OVCAR-4 ovarian
786-0 renal = system: 786-0 renal
TK-10 renal = system: TK-10 renal
NCI-H460 lung = system: NCI-H460 lung
RXF 393 renal = system: RXF 393 renal
SF-268 CNS = system: SF-268 CNS
CAKI-1 renal = system: CAKI-1 renal

**Q.** With `COc1ccc(-c2cncn2-c2ccc(OC)cc2)cc1` as the compound, how does the GI50 (NCI-H522 lung) read?
**A.** 13.6 µM

**Q.** And the TGI (NCI-H522 lung)?
**A.** 38.3 µM

**Q.** What about the GI50 (HL-60(TB) leukemia) of the same compound?
**A.** 9.06 µM

**Q.** And the TGI (HL-60(TB) leukemia)?
**A.** 26.2 µM

**Q.** What about the GI50 (IGROV1 ovarian) of the same compound?
**A.** 18.7 µM

**Q.** And the TGI (IGROV1 ovarian)?
**A.** 62.5 µM

**Q.** What about the GI50 (HOP-92 NSCLC) of the same compound?
**A.** 23 µM

**Q.** And the TGI (HOP-92 NSCLC)?
**A.** 84.8 µM

**Q.** What about the GI50 (A549 NSCLC) of the same compound?
**A.** 20.6 µM

**Q.** And the TGI (A549 NSCLC)?
**A.** 49.3 µM

**Q.** And the GI50 (UO-31 renal)?
**A.** 17.2 µM

**Q.** What about the TGI (UO-31 renal) of the same compound?
**A.** 53.6 µM

**Q.** And the GI50 (M14 melanoma)?
**A.** 20.8 µM

**Q.** What about the TGI (M14 melanoma) of the same compound?
**A.** 46.9 µM

**Q.** And the GI50 (LOX IMVI melanoma)?
**A.** 29.6 µM

**Q.** And the TGI (LOX IMVI melanoma)?
**A.** > 100 µM

**Q.** What about the GI50 (NCI-H23 lung) of the same compound?
**A.** 19.1 µM

**Q.** What about the TGI (NCI-H23 lung) of the same compound?
**A.** 48.3 µM

**Q.** And the GI50 (HCC-2998 colon)?
**A.** 16.7 µM

**Q.** What about the TGI (HCC-2998 colon) of the same compound?
**A.** 32.2 µM

**Q.** And the GI50 (U251 CNS)?
**A.** 25.3 µM

**Q.** What about the TGI (U251 CNS) of the same compound?
**A.** > 100 µM

**Q.** What about the GI50 (OVCAR-3 ovarian) of the same compound?
**A.** 20 µM

**Q.** What about the TGI (OVCAR-3 ovarian) of the same compound?
**A.** 45.5 µM

**Q.** What about the GI50 (OVCAR-8 ovarian) of the same compound?
**A.** 21.1 µM

**Q.** What about the TGI (OVCAR-8 ovarian) of the same compound?
**A.** 52.8 µM

**Q.** And the GI50 (A498 renal)?
**A.** 16.3 µM

**Q.** What about the TGI (A498 renal) of the same compound?
**A.** 34.3 µM

**Q.** And the GI50 (ACHN renal)?
**A.** 21.3 µM

**Q.** And the TGI (ACHN renal)?
**A.** 60.4 µM

**Q.** What about the GI50 (OVCAR-5 ovarian) of the same compound?
**A.** 25.2 µM

**Q.** What about the TGI (OVCAR-5 ovarian) of the same compound?
**A.** 82.7 µM

**Q.** What about the GI50 (HOP-62 NSCLC) of the same compound?
**A.** 22.8 µM

**Q.** What about the TGI (HOP-62 NSCLC) of the same compound?
**A.** 67.4 µM

**Q.** What about the GI50 (MDA-MB-435) of the same compound?
**A.** 3.62 µM

**Q.** And the TGI (MDA-MB-435)?
**A.** 14.1 µM

**Q.** What about the GI50 (UACC-257 melanoma) of the same compound?
**A.** 21.4 µM

**Q.** And the TGI (UACC-257 melanoma)?
**A.** 62.2 µM

**Q.** And the GI50 (HCT-15 colon)?
**A.** 19.6 µM

**Q.** And the TGI (HCT-15 colon)?
**A.** > 100 µM

**Q.** And the GI50 (SW-620 colon)?
**A.** 26.1 µM

**Q.** And the TGI (SW-620 colon)?
**A.** > 100 µM

**Q.** What about the GI50 (SK-MEL-2 melanoma) of the same compound?
**A.** 17.9 µM

**Q.** And the TGI (SK-MEL-2 melanoma)?
**A.** 42.9 µM

**Q.** And the GI50 (SK-MEL-5 melanoma)?
**A.** 17.9 µM

**Q.** What about the TGI (SK-MEL-5 melanoma) of the same compound?
**A.** 33.8 µM

**Q.** And the GI50 (KM12 colon)?
**A.** 10.2 µM

**Q.** And the TGI (KM12 colon)?
**A.** 29 µM

**Q.** What about the GI50 (NCI-H226 lung) of the same compound?
**A.** 22.5 µM

**Q.** And the TGI (NCI-H226 lung)?
**A.** 98.3 µM

**Q.** What about the GI50 (MCF7 breast) of the same compound?
**A.** 17.4 µM

**Q.** What about the TGI (MCF7 breast) of the same compound?
**A.** 41.2 µM

**Q.** And the GI50 (NCI/ADR-RES ovarian)?
**A.** 19.3 µM

**Q.** What about the TGI (NCI/ADR-RES ovarian) of the same compound?
**A.** 42.9 µM

**Q.** What about the GI50 (UACC-62 melanoma) of the same compound?
**A.** 15.7 µM

**Q.** What about the TGI (UACC-62 melanoma) of the same compound?
**A.** 53.1 µM

**Q.** And the GI50 (DU-145 prostate)?
**A.** 14.9 µM

**Q.** What about the TGI (DU-145 prostate) of the same compound?
**A.** 32.5 µM

**Q.** What about the GI50 (RPMI-8226 leukemia) of the same compound?
**A.** 10.9 µM

**Q.** What about the TGI (RPMI-8226 leukemia) of the same compound?
**A.** 32.5 µM

**Q.** And the GI50 (HS 578T breast)?
**A.** 17.5 µM

**Q.** And the TGI (HS 578T breast)?
**A.** 56 µM

**Q.** What about the GI50 (EKVX NSCLC) of the same compound?
**A.** 4.08 µM

**Q.** And the TGI (EKVX NSCLC)?
**A.** 27.1 µM

**Q.** And the GI50 (SF-295 CNS)?
**A.** 12.7 µM

**Q.** And the TGI (SF-295 CNS)?
**A.** 47 µM

**Q.** And the GI50 (PC-3 prostate)?
**A.** 30 µM

**Q.** And the TGI (PC-3 prostate)?
**A.** > 100 µM

**Q.** What about the GI50 (SN12C renal) of the same compound?
**A.** 18.1 µM

**Q.** And the TGI (SN12C renal)?
**A.** 48.3 µM

**Q.** And the GI50 (HCT-116 colon)?
**A.** 20.5 µM

**Q.** And the TGI (HCT-116 colon)?
**A.** 44 µM

**Q.** What about the GI50 (K-562 leukemia) of the same compound?
**A.** 10.8 µM

**Q.** What about the TGI (K-562 leukemia) of the same compound?
**A.** 36.9 µM

**Q.** What about the GI50 (BT-549 breast) of the same compound?
**A.** 12.3 µM

**Q.** And the TGI (BT-549 breast)?
**A.** 32.5 µM

**Q.** What about the GI50 (MDA-MB-231 breast) of the same compound?
**A.** 21.3 µM

**Q.** And the TGI (MDA-MB-231 breast)?
**A.** 71 µM

**Q.** And the GI50 (SF-539 CNS)?
**A.** 11.2 µM

**Q.** What about the TGI (SF-539 CNS) of the same compound?
**A.** 29.2 µM

**Q.** And the GI50 (OVCAR-4 ovarian)?
**A.** 28.9 µM

**Q.** And the TGI (OVCAR-4 ovarian)?
**A.** > 100 µM

**Q.** What about the GI50 (786-0 renal) of the same compound?
**A.** 21.9 µM

**Q.** What about the TGI (786-0 renal) of the same compound?
**A.** 49.1 µM

**Q.** And the GI50 (TK-10 renal)?
**A.** 17.4 µM

**Q.** What about the TGI (TK-10 renal) of the same compound?
**A.** 41.9 µM

**Q.** What about the GI50 (NCI-H460 lung) of the same compound?
**A.** 15.6 µM

**Q.** And the TGI (NCI-H460 lung)?
**A.** 48.4 µM

**Q.** What about the GI50 (RXF 393 renal) of the same compound?
**A.** 0.376 µM

**Q.** And the TGI (RXF 393 renal)?
**A.** 9.46 µM

**Q.** What about the GI50 (SF-268 CNS) of the same compound?
**A.** 21.7 µM

**Q.** What about the TGI (SF-268 CNS) of the same compound?
**A.** 66.2 µM

**Q.** And the GI50 (CAKI-1 renal)?
**A.** 20.6 µM

**Q.** What about the TGI (CAKI-1 renal) of the same compound?
**A.** 44 µM
